Laboratory results: ChEMBL document CHEMBL1201862, “PubChem BioAssay data set” (2004)
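A five-concentration, 48-hour dose response in 96-well plates underlies each endpoint, interpolated linearly between surrounding concentrations. Abbreviation: GI50, concentration required for 50% inhibition of growth.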 Calls of active or inactive are those of the source. Cut-off read from the data, not from the text of the source: active = GI50 up to about 1.1 µM and inactive = higher.

What was measured:
Test in all cases: NCI-60 cell line screen, 48 h
A498 = tested on: A498
BT-549 = tested on: BT-549
HCC 2998 = tested on: HCC 2998
HOP-62 = tested on: HOP-62
HOP-92 = tested on: HOP-92
Hs-578T = tested on: Hs-578T
K562 = tested on: K562
KM12 = tested on: KM12
LOX IMVI = tested on: LOX IMVI
M14 = tested on: M14
MOLT-4 = tested on: MOLT-4
OVCAR-3 = tested on: OVCAR-3
OVCAR-4 = tested on: OVCAR-4
SF-268 = tested on: SF-268
SF-295 = tested on: SF-295
SN12C = tested on: SN12C
SNB-75 = tested on: SNB-75
SW-620 = tested on: SW-620
UACC-62 = tested on: UACC-62
UO-31 = tested on: UO-31

Measured: GI50

CC12CCC(=O)C=C1CCC1C2C(O)CC2(C)C(c3csc(N)n3)CCC12.O=S(=O)(O)c1ccc(Br)cc1 (stereo not given)
inactive: A498 > 100 µM | BT-549 > 100 µM | HCC 2998 > 100 µM | HOP-62 > 100 µM | HOP-92 > 100 µM | Hs-578T > 100 µM | K562 > 100 µM | KM12 > 100 µM | LOX IMVI > 100 µM | M14 > 100 µM | MOLT-4 > 100 µM | OVCAR-3 > 100 µM | OVCAR-4 > 100 µM | SF-268 > 100 µM | SF-295 > 100 µM | SN12C > 100 µM | SNB-75 > 100 µM | SW-620 > 100 µM | UACC-62 > 100 µM | UO-31 > 100 µM

COC(=O)CN(CC1O[C@@H]2OC(C)(C)O[C@@H]2C1N=[N+]=[N-])C(=O)OCc1ccccc1 (stereo not given in full)
inactive: A498 > 100 µM | BT-549 > 100 µM | HCC 2998 > 100 µM | HOP-62 > 100 µM | HOP-92 > 100 µM | Hs-578T 16 µM | K562 57 µM | KM12 > 100 µM | LOX IMVI > 100 µM | M14 > 100 µM | MOLT-4 51.4 µM | OVCAR-3 > 100 µM | OVCAR-4 > 100 µM | SF-268 > 100 µM | SF-295 > 100 µM | SN12C > 100 µM | SNB-75 > 100 µM | SW-620 > 100 µM | UACC-62 > 100 µM | UO-31 > 100 µM

COn1cc(C=O)c2ccccc21
inactive: A498 1.95 µM | BT-549 > 100 µM | HCC 2998 21.8 µM | HOP-62 81.3 µM | HOP-92 > 68.9 µM | Hs-578T 37.4 µM | K562 53.5 µM | KM12 23.9 µM | LOX IMVI > 65.2 µM | M14 > 61.8 µM | MOLT-4 33.2 µM | OVCAR-3 36.6 µM | OVCAR-4 > 50.5 µM | SF-268 68.4 µM | SF-295 44.1 µM | SN12C > 80.4 µM | SNB-75 33.7 µM | SW-620 26 µM | UACC-62 41 µM | UO-31 61.2 µM

O=C(NCCCCCN1CCC2(CCCCC2)CC1)C(C1CCCCC1)C1CCCCC1
inactive: A498 4.26 µM | BT-549 5.87 µM | HCC 2998 1.3 µM | HOP-62 1.85 µM | HOP-92 3.73 µM | Hs-578T 3.05 µM | K562 1.52 µM | KM12 6.11 µM | LOX IMVI 2.7 µM | M14 1.68 µM | MOLT-4 1.9 µM | OVCAR-3 4.17 µM | OVCAR-4 3.59 µM | SF-268 5.35 µM | SF-295 1.88 µM | SN12C 3.55 µM | SNB-75 4.12 µM | SW-620 2.6 µM | UACC-62 2.48 µM | UO-31 3.61 µM

O=C(NCP(=O)(c1ccccc1)c1ccccc1)OCc1ccccc1
inactive: A498 > 100 µM | BT-549 > 100 µM | HCC 2998 > 100 µM | HOP-62 27.4 µM | HOP-92 40 µM | Hs-578T 43.6 µM | K562 > 100 µM | KM12 > 100 µM | LOX IMVI > 100 µM | M14 > 100 µM | MOLT-4 > 100 µM | OVCAR-3 54.3 µM | OVCAR-4 43.5 µM | SF-268 21.4 µM | SF-295 58.6 µM | SN12C > 100 µM | SNB-75 6.65 µM | SW-620 > 100 µM | UACC-62 > 100 µM | UO-31 > 100 µM

COc1ccc(C2OC(=O)c3ccc4ccccc4c32)c(C)c1 (stereo not given)
inactive: A498 7.41 µM | BT-549 19.5 µM | HCC 2998 3.85 µM | HOP-62 7.26 µM | HOP-92 10.9 µM | Hs-578T 10.2 µM | K562 3.55 µM | KM12 5.87 µM | LOX IMVI 7.89 µM | M14 6.73 µM | MOLT-4 7.73 µM | OVCAR-3 6.44 µM | OVCAR-4 19.6 µM | SF-268 45.2 µM | SF-295 2.98 µM | SN12C 10.1 µM | SNB-75 6.97 µM | SW-620 3.96 µM | UACC-62 6.93 µM | UO-31 8.97 µM

CC(C)=C1C(=O)C[C@]2(C)C[C@H]3O[C@]3(C)CC[C@@H]3O[C@@]3(C)CC[C@@H]12
inactive: A498 > 50 µM | BT-549 > 50 µM | HCC 2998 > 50 µM | HOP-62 > 50 µM | HOP-92 > 50 µM | Hs-578T > 50 µM | K562 44.3 µM | KM12 > 50 µM | LOX IMVI 17.5 µM | M14 > 50 µM | MOLT-4 > 50 µM | OVCAR-3 > 50 µM | OVCAR-4 > 50 µM | SF-268 > 50 µM | SF-295 > 50 µM | SN12C > 50 µM | SNB-75 > 50 µM | SW-620 > 50 µM | UACC-62 > 50 µM | UO-31 30.3 µM

CN1CCN(C)C12C=c1ccccc1=CC21CC1
inactive: A498 > 100 µM | BT-549 41 µM | HCC 2998 16.3 µM | HOP-62 > 91.4 µM | HOP-92 28.7 µM | Hs-578T 21.9 µM | K562 22.8 µM | KM12 29 µM | LOX IMVI 34.6 µM | M14 18.6 µM | MOLT-4 21.6 µM | OVCAR-3 62.1 µM | OVCAR-4 71.3 µM | SF-268 29.7 µM | SF-295 > 77.6 µM | SN12C 81.1 µM | SNB-75 45.6 µM | SW-620 22.2 µM | UACC-62 18.6 µM | UO-31 40.9 µM

Cc1cc[n+]2c(c1)-c1cc(C)cc[n+]1CC2
inactive: A498 > 100 µM | BT-549 > 100 µM | HCC 2998 > 100 µM | HOP-62 > 100 µM | HOP-92 > 100 µM | Hs-578T > 100 µM | K562 > 100 µM | KM12 > 100 µM | LOX IMVI > 100 µM | M14 > 100 µM | MOLT-4 > 100 µM | OVCAR-3 45.2 µM | OVCAR-4 > 100 µM | SF-268 > 100 µM | SF-295 > 100 µM | SN12C 89.9 µM | SNB-75 > 100 µM | SW-620 > 100 µM | UACC-62 > 100 µM | UO-31 > 100 µM
